Test results reported in the NIST ThermoML archive (doi:10.1016/j.jct.2017.07.040).
Numbers after ± are expanded uncertainties.

Assay: mn = molality of the nth substance listed, in mol/kg
Conditions: 101 kPa, Liquid; for viscosity: Capillary tube (Ostwald / Ubbelohde) method; for mass density: Vibrating tube method; for speed of sound: Frequency=6 MHz, Linear variable-path acoustic interferometer

## O [water] + N[C@@H](Cc1c[nH]cn1)C(=O)O
293.15 K, m2 = 0
  viscosity: 1.002 ± 0.021 mPa·s
298.15 K, m2 = 0
  viscosity: 0.8903 ± 0.021 mPa·s
303.15 K, m2 = 0
  viscosity: 0.7973 ± 0.021 mPa·s
308.15 K, m2 = 0
  viscosity: 0.719 ± 0.021 mPa·s
  mass density: 994.063 ± 1.1 kg/m3
313.15 K, m2 = 0
  viscosity: 0.6526 ± 0.021 mPa·s
  speed of sound: 1529.3 ± 2.5 m/s

## CC1(C)S[C@@H]2[C@H](NC(=O)[C@H](N)c3ccccc3)C(=O)N2[C@H]1C(=O)[O-].[Na+] [Ampicillin Sodium] + O
293.15 K, m1 = 0.035
  viscosity: 1.034 ± 0.021 mPa·s
  speed of sound: 1487.5 ± 2.5 m/s
  mass density: 1002.84 ± 1.3 kg/m3
293.15 K, m1 = 0.055
  viscosity: 1.072 ± 0.021 mPa·s
  speed of sound: 1492 ± 2.5 m/s
  mass density: 1005.4 ± 1.3 kg/m3
293.15 K, m1 = 0.075
  viscosity: 1.109 ± 0.021 mPa·s
  speed of sound: 1496.1 ± 2.5 m/s
  mass density: 1007.9 ± 1.1 kg/m3
293.15 K, m1 = 0.095
  viscosity: 1.113 ± 0.021 mPa·s
  speed of sound: 1501.3 ± 2.5 m/s
  mass density: 1010.54 ± 1.3 kg/m3
298.15 K, m1 = 0.035
  viscosity: 0.9268 ± 0.021 mPa·s
  speed of sound: 1501.6 ± 2.5 m/s
  mass density: 1001.64 ± 1.3 kg/m3
298.15 K, m1 = 0.055
  viscosity: 0.9663 ± 0.021 mPa·s
  speed of sound: 1505.6 ± 2.5 m/s
  mass density: 1004.16 ± 1.3 kg/m3
298.15 K, m1 = 0.075
  viscosity: 1.008 ± 0.021 mPa·s
  speed of sound: 1509.6 ± 2.5 m/s
  mass density: 1006.66 ± 1.3 kg/m3
298.15 K, m1 = 0.095
  viscosity: 1.05 ± 0.021 mPa·s
  speed of sound: 1515 ± 2.5 m/s
  mass density: 1009.25 ± 1.3 kg/m3
303.15 K, m1 = 0.035
  viscosity: 0.8381 ± 0.021 mPa·s
  speed of sound: 1514 ± 2.5 m/s
  mass density: 1000.19 ± 1.3 kg/m3
303.15 K, m1 = 0.055
  viscosity: 0.8814 ± 0.021 mPa·s
  speed of sound: 1518.1 ± 2.5 m/s
  mass density: 1002.69 ± 1.2 kg/m3
303.15 K, m1 = 0.075
  viscosity: 0.9262 ± 0.021 mPa·s
  speed of sound: 1522.1 ± 2.5 m/s
  mass density: 1005.1 ± 1.3 kg/m3
303.15 K, m1 = 0.095
  viscosity: 0.9736 ± 0.021 mPa·s
  speed of sound: 1526 ± 2.5 m/s
  mass density: 1007.7 ± 1.3 kg/m3
308.15 K, m1 = 0.035
  viscosity: 0.7612 ± 0.021 mPa·s
  speed of sound: 1524.7 ± 2.5 m/s
  mass density: 998.531 ± 1.3 kg/m3
308.15 K, m1 = 0.055
  viscosity: 0.8077 ± 0.021 mPa·s
  speed of sound: 1529 ± 2.5 m/s
  mass density: 1001.01 ± 1.2 kg/m3
308.15 K, m1 = 0.075
  viscosity: 0.8543 ± 0.021 mPa·s
  speed of sound: 1533 ± 2.5 m/s
  mass density: 1003.04 ± 1.2 kg/m3
308.15 K, m1 = 0.095
  viscosity: 0.9016 ± 0.021 mPa·s
  speed of sound: 1535.7 ± 2.5 m/s
  mass density: 1005.84 ± 1.3 kg/m3
313.15 K, m1 = 0.035
  viscosity: 0.6978 ± 0.02 mPa·s
  speed of sound: 1533.8 ± 2.5 m/s
  mass density: 996.661 ± 1.3 kg/m3
313.15 K, m1 = 0.055
  viscosity: 0.748 ± 0.021 mPa·s
  speed of sound: 1538 ± 2.5 m/s
  mass density: 999.128 ± 1.2 kg/m3
313.15 K, m1 = 0.075
  viscosity: 0.7967 ± 0.021 mPa·s
  speed of sound: 1542.5 ± 2.5 m/s
  mass density: 1000.49 ± 1.1 kg/m3
313.15 K, m1 = 0.095
  viscosity: 0.8021 ± 0.021 mPa·s
  speed of sound: 1546.1 ± 2.5 m/s
  mass density: 1003.74 ± 1.4 kg/m3

## O [water] + CC1(C)S[C@@H]2[C@H](NC(=O)[C@H](N)c3ccccc3)C(=O)N2[C@H]1C(=O)[O-].[Na+]
293.15 K, m2 = 0
  viscosity: 1.002 ± 0.021 mPa·s
298.15 K, m2 = 0
  viscosity: 0.8903 ± 0.021 mPa·s
303.15 K, m2 = 0
  viscosity: 0.7973 ± 0.021 mPa·s
308.15 K, m2 = 0
  viscosity: 0.719 ± 0.021 mPa·s
  mass density: 994.063 ± 1.3 kg/m3
313.15 K, m2 = 0
  viscosity: 0.6526 ± 0.02 mPa·s
  speed of sound: 1529.3 ± 2.5 m/s

## N[C@@H](Cc1c[nH]cn1)C(=O)O [L-histidine] + O
293.15 K, m1 = 0.01
  viscosity: 1.009 ± 0.021 mPa·s
  speed of sound: 1483.9 ± 2.5 m/s
  mass density: 998.806 ± 1.1 kg/m3
293.15 K, m1 = 0.03
  viscosity: 1.016 ± 0.021 mPa·s
  speed of sound: 1485.7 ± 2.5 m/s
  mass density: 999.974 ± 1.1 kg/m3
293.15 K, m1 = 0.05
  viscosity: 1.022 ± 0.021 mPa·s
  speed of sound: 1487.5 ± 2.5 m/s
  mass density: 1001.14 ± 1.1 kg/m3
293.15 K, m1 = 0.07
  viscosity: 1.028 ± 0.021 mPa·s
  speed of sound: 1489.3 ± 2.5 m/s
  mass density: 1002.32 ± 1.1 kg/m3
293.15 K, m1 = 0.09
  viscosity: 1.034 ± 0.021 mPa·s
  speed of sound: 1491.1 ± 2.5 m/s
  mass density: 1003.5 ± 1.1 kg/m3
293.15 K, m1 = 0.11
  viscosity: 1.04 ± 0.021 mPa·s
  speed of sound: 1492.8 ± 2.5 m/s
  mass density: 1004.68 ± 1.1 kg/m3
298.15 K, m1 = 0.01
  viscosity: 0.8956 ± 0.021 mPa·s
  speed of sound: 1498.2 ± 2.5 m/s
  mass density: 997.635 ± 1.1 kg/m3
298.15 K, m1 = 0.03
  viscosity: 0.9014 ± 0.021 mPa·s
  speed of sound: 1500 ± 2.5 m/s
  mass density: 998.775 ± 1.1 kg/m3
298.15 K, m1 = 0.05
  viscosity: 0.9061 ± 0.021 mPa·s
  speed of sound: 1501.7 ± 2.5 m/s
  mass density: 999.914 ± 1.1 kg/m3
298.15 K, m1 = 0.07
  viscosity: 0.9107 ± 0.021 mPa·s
  speed of sound: 1503.2 ± 2.5 m/s
  mass density: 1001.05 ± 1.1 kg/m3
298.15 K, m1 = 0.09
  viscosity: 0.9156 ± 0.021 mPa·s
  speed of sound: 1505 ± 2.5 m/s
  mass density: 1002.19 ± 1.1 kg/m3
298.15 K, m1 = 0.11
  viscosity: 0.9197 ± 0.021 mPa·s
  speed of sound: 1506.9 ± 2.5 m/s
  mass density: 1003.33 ± 1.1 kg/m3
303.15 K, m1 = 0.01
  viscosity: 0.8015 ± 0.021 mPa·s
  speed of sound: 1510.3 ± 2.5 m/s
  mass density: 996.232 ± 1.1 kg/m3
303.15 K, m1 = 0.03
  viscosity: 0.8061 ± 0.021 mPa·s
  speed of sound: 1512 ± 2.5 m/s
  mass density: 997.346 ± 1.1 kg/m3
303.15 K, m1 = 0.05
  viscosity: 0.8103 ± 0.021 mPa·s
  speed of sound: 1513.7 ± 2.5 m/s
  mass density: 998.458 ± 1.1 kg/m3
303.15 K, m1 = 0.07
  viscosity: 0.8143 ± 0.021 mPa·s
  speed of sound: 1515.4 ± 2.5 m/s
  mass density: 999.567 ± 1.1 kg/m3
303.15 K, m1 = 0.09
  viscosity: 0.8178 ± 0.021 mPa·s
  speed of sound: 1517 ± 2.5 m/s
  mass density: 1000.68 ± 1.1 kg/m3
303.15 K, m1 = 0.11
  viscosity: 0.8217 ± 0.021 mPa·s
  speed of sound: 1518.7 ± 2.5 m/s
  mass density: 1001.79 ± 1 kg/m3
308.15 K, m1 = 0.01
  viscosity: 0.7223 ± 0.021 mPa·s
  speed of sound: 1521 ± 2.5 m/s
  mass density: 994.608 ± 1.1 kg/m3
308.15 K, m1 = 0.03
  viscosity: 0.7259 ± 0.021 mPa·s
  speed of sound: 1522.7 ± 2.5 m/s
  mass density: 995.696 ± 1.1 kg/m3
308.15 K, m1 = 0.05
  viscosity: 0.7292 ± 0.021 mPa·s
  speed of sound: 1524.3 ± 2.5 m/s
  mass density: 996.785 ± 1.1 kg/m3
308.15 K, m1 = 0.07
  viscosity: 0.7323 ± 0.021 mPa·s
  speed of sound: 1525.9 ± 2.5 m/s
  mass density: 997.874 ± 1.1 kg/m3
308.15 K, m1 = 0.09
  viscosity: 0.7356 ± 0.021 mPa·s
  speed of sound: 1527.5 ± 2.5 m/s
  mass density: 998.961 ± 1.1 kg/m3
308.15 K, m1 = 0.11
  viscosity: 0.7389 ± 0.021 mPa·s
  speed of sound: 1529.1 ± 2.5 m/s
  mass density: 1000.05 ± 1.1 kg/m3
313.15 K, m1 = 0.01
  viscosity: 0.6553 ± 0.02 mPa·s
  speed of sound: 1530.1 ± 2.5 m/s
  mass density: 992.782 ± 1.1 kg/m3
313.15 K, m1 = 0.03
  viscosity: 0.6584 ± 0.02 mPa·s
  speed of sound: 1531.7 ± 2.5 m/s
  mass density: 993.848 ± 1.1 kg/m3
313.15 K, m1 = 0.05
  viscosity: 0.6613 ± 0.02 mPa·s
  speed of sound: 1533.2 ± 2.5 m/s
  mass density: 994.918 ± 1.1 kg/m3
313.15 K, m1 = 0.07
  viscosity: 0.6638 ± 0.02 mPa·s
  speed of sound: 1534.8 ± 2.5 m/s
  mass density: 995.988 ± 1.1 kg/m3
313.15 K, m1 = 0.09
  viscosity: 0.6669 ± 0.02 mPa·s
  speed of sound: 1536.3 ± 2.5 m/s
  mass density: 997.06 ± 1.1 kg/m3
313.15 K, m1 = 0.11
  viscosity: 0.6692 ± 0.02 mPa·s
  speed of sound: 1537.8 ± 2.5 m/s
  mass density: 998.13 ± 1.1 kg/m3
